Assay results from article PMC8041284, “Tunable Methacrylamides for Covalent Ligand Directed Release Chemistry” (Journal of the American Chemical Society, 2021).

These compounds were tested against BTK (Homo sapiens, UniProt Q06187) (assay: biochemical). Conditions: read-out: BTK inhibition (%).
BTK, sequence (Q06187 402-655 limits assumed): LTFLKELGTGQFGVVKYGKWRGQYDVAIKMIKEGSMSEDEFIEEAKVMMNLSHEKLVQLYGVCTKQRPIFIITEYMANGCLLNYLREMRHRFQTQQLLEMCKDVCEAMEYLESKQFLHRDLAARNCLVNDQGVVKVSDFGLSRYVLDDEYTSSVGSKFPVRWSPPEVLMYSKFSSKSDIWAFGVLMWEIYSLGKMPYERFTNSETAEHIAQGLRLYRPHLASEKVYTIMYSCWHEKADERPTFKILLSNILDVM

Compound | inhibition at 10 µM [%]
NCC(CC(=O)O)c1ccccc1 (stereo not shown) [PCM-0215126] | -9.3
CN1[C@@H]2CC[C@H]1CC(O)C2 (stereo partly shown) [PCM-0215128] | -7.8
CC(=O)O[C@H]1[C@H]2[C@@H](OC(=O)Cc3ccccc3)[C@@H](C)C[C@]2(OC(C)=O)C(=O)/C(C)=C/[C@@H]2[C@H](CC[C@@]13CO3)C2(C)C [PCM-0215129] | -14

Same assay, conditions: read-out: BTK inhibition (%), 0.75 uM BTK, […] probe 3l, 15 min preincubation

Compound | inhibition at 10 µM [%]
CC(C)(O)[C@@H]1CC[C@](C)([C@H]2[C@@H](O)C[C@@]3(C)[C@@H]4C[C@H](O)[C@H]5C(C)(C)[C@@H](O)CC[C@@]56C[C@@]46CC[C@]23C)O1 [PCM-0215101] | -6.9
C[C@H]1[C@H](C)CC[C@]2(C(=O)O[C@@H]3O[C@H](CO[C@@H]4O[C@H](CO)[C@@H](O[C@@H]5O[C@@H](C)[C@H](O)[C@@H](O)[C@H]5O)[C@H](O)[C@H]4O)[C@@H](O)[C@H](O)[C@H]3O)CC[C@]3(C)C(=CC[C@@H]4[C@@]5(C)C[C@@H](O)[C@H](O)[C@@](C)(CO)[C@@H]5[C@H](O)C[C@]43C)[C@H]12 [PCM-0215102] | 10.1
CCN(CC)CC(=O)Oc1ccc(NC(C)=O)cc1 [PCM-0215103] | -0.8
COc1cccc(-c2c(C)n(Cc3c(F)cccc3C(F)(F)F)c(=O)n(C[C@H](NCCCC(=O)O)c3ccccc3)c2=O)c1F [PCM-0215104] | -7
COC(=O)c1ccc(O)c(C(=O)OC)c1 [PCM-0215105] | -13.1
CC(C)(C)c1cc(O)ccc1O [PCM-0215107] | 5.5
O=c1c(-c2ccc(O[C@@H]3O[C@H](CO)[C@@H](O)[C@H](O)[C@H]3O)cc2)coc2cc(O)cc(O)c12 [PCM-0215108] | -9.7
CCc1ccc(C(=O)C(C)CN2CCCCC2)cc1 (stereo not shown) [PCM-0215109] | -24.1
CCCCCOc1ccccc1/C(=C\SC)n1ccnc1 [PCM-0215110] | -22.6
CCCC(CCC)C(N)=O [PCM-0215111] | 19.3
CN[C@H]1C(=O)N[C@@H]2Cc3ccc(cc3)Oc3cc4cc(c3O[C@@H]3O[C@H](C(=O)O)[C@@H](O)[C@H](O)[C@H]3NC(=O)CCCCCCCCC(C)C)Oc3ccc(cc3Cl)[C@@H](O)[C@@H]3NC(=O)[C@H](NC(=O)[C@@H]4NC(=O)[C@@H](NC2=O)c2cc(cc(O)c2Cl)Oc2cc1ccc2O)c1ccc(O)c(c1)-c1c(O[C@H]2O[C@H](CO)[C@@H](O)[C@H](O)[C@@H]2O)cc(O)cc1[C@@H](C(=O)NCCCN(C)C)NC3=O [PCM-0215113] | 73.2
CCCOC(C(=O)OC1CCN(C)CC1)(c1ccccc1)c1ccccc1 [PCM-0215115] | -24.1
CC(=O)CC/C=C(\C)CC/C=C(\C)CC/C=C(\C)CCC=C(C)C [PCM-0215116] | 2.3
CCCCCCCCN=c1ccn(CCCCCCCCCCn2ccc(=NCCCCCCCC)cc2)cc1 [PCM-0215117] | -64.1
N#Cc1ccc(Oc2ccc3c(c2)COB3O)cc1 [PCM-0215118] | 8.5
O=C(O)COCCN1CCN([C@H](c2ccccc2)c2ccc(Cl)cc2)CC1 [PCM-0215119] | -6.2
OCCc1c[nH]c2ccccc12 [PCM-0215120] | -24.1
O=C(O)Cc1ccc(O)cc1 [PCM-0215121] | 25.7
O=C(O)c1ccco1 [PCM-0215122] | -21.8
CN(CCO)CC(O)Cn1cnc2c1c(=O)n(C)c(=O)n2C (stereo not shown) [PCM-0215123] | 9.3
N/C(=N\N=C\c1ccc(Cl)cc1)N/N=C/c1ccc(Cl)cc1 [PCM-0215125] | 77.8
OC[C@H]1O[C@H](O[C@H]2[C@H](O)[C@@H](O)C(O)O[C@@H]2CO)[C@H](O)[C@@H](O)[C@@H]1O (stereo partly shown) [PCM-0215131] | 0
O=C(O)c1c[nH]c2ccccc12 [PCM-0215132] | 6.2
O=C1Cc2ccccc2N1 [PCM-0215133] | 1.6
Cc1nnc(SCC2=C(C(=O)O)N3C(=O)[C@@H](NC(=O)Cn4cc(Cl)c(=O)c(Cl)c4)[C@H]3SC2)s1 [PCM-0215135] | -13.2
O=C(Nc1ccc(Br)cc1)c1c(O)cccc1O [PCM-0215136] | 3.9

Compound | inhibition at 10 µM [%]
C/C(=C\CNc1ncnc2nc[nH]c12)CO [PCM-0215137] | -13.2
O=S1(=O)CCN(CN2CCS(=O)(=O)NC2)CN1 [PCM-0215138] | 0
Nc1ccnc(=O)[nH]1 [PCM-0215139] | -5.4
O=C[C@H](O)[C@H]1OC(=O)[C@@H](O)[C@H]1O [PCM-0215140] | -1.4
OC1CC2CCC(C1)N2 (stereo not shown) [PCM-0215141] | -1.6
Nc1ccc(S(=O)(=O)Nc2cncc(Cl)n2)cc1 [PCM-0215142] | -10.9
COc1cc(S(=O)(=O)O)ccc1O [PCM-0215143] | -7
C[C@@H]1CC[C@H]2C(C)(C)C3CC12CC[C@@]3(C)O (stereo partly shown) [PCM-0215144] | 8.6
O=C(O)/C=C(/CC(=O)O)C(=O)O [PCM-0215145] | -0.8
COc1cc(CO)cc(OC)c1O [PCM-0215146] | -6.2
C[C@H](CCC(=O)NCC(=O)O)[C@H]1CC[C@H]2[C@@H]3[C@H](O)C[C@@H]4C[C@H](O)CC[C@]4(C)[C@H]3C[C@H](O)[C@]12C [PCM-0215147] | -10.1
O=Cc1ccccc1O[C@@H]1O[C@H](CO)[C@@H](O)[C@H](O)[C@H]1O [PCM-0215148] | -15.6
C1=Cc2ccccc2Nc2ccccc21 [PCM-0215149] | 4.7
CCCCc1nc(C)c(CC(=S)N(C)C)c(=O)n1Cc1ccc(-c2ccccc2-c2nn[nH]n2)cc1 [PCM-0215150] | -6.2
CC1=C(C(=O)OCCN(Cc2ccccc2)c2ccccc2)C(c2cccc([N+](=O)[O-])c2)C(P2(=O)OCC(C)(C)CO2)=C(C)N1 (stereo not shown) [PCM-0215151] | 7.8
O=C(Nc1cc(Cl)cc(Cl)c1O)c1c(O)c(Cl)cc(Cl)c1Cl [PCM-0215152] | 18.5
CCC(C(=O)O)c1ccc(N2Cc3ccccc3C2=O)cc1 (stereo not shown) [PCM-0215153] | -18.5
C[C@@H](O)[C@H]1C(=O)N2C(C(=O)O)=C([C@H]3CCCO3)S[C@H]12 [PCM-0215154] | -2.3
CO/N=C(\C(=O)N[C@@H]1C(=O)N2C(C(=O)O)=C(CSc3nc(C)c(CC(=O)O)s3)CS[C@H]12)c1csc(N)n1 [PCM-0215155] | -2.3
O=C(Nc1ccc([N+](=O)[O-])cc1)Nc1ccc([N+](=O)[O-])cc1 [PCM-0215156] | -14
c1csc(-c2ccc(-c3cccs3)s2)c1 [PCM-0215157] | 0
C/C=C/C=C/C(=O)O [PCM-0215158] | 0
CC(C)[C@H](C)[C@@H](O)[C@H](O)[C@@H](C)[C@H]1CC[C@H]2[C@@H]3COC(=O)[C@H]4C[C@H](O)[C@H](O)C[C@]4(C)[C@H]3CC[C@]12C [PCM-0215160] | -10.1
CC(C)=CCC[C@](C)(O[C@@H]1O[C@H](CO)[C@@H](O)[C@H](O)[C@H]1O)[C@H]1CC[C@]2(C)[C@@H]1[C@H](O)C[C@@H]1[C@@]3(C)CC[C@H](O)C(C)(C)[C@@H]3[C@@H](O[C@@H]3O[C@H](CO)[C@@H](O)[C@H](O)[C@H]3O[C@@H]3OC[C@@H](O)[C@H](O)[C@H]3O)C[C@]12C [PCM-0215161] | 5.5
O=Cc1ccc(O)c(O)c1 [PCM-0215162] | 5.4
N[C@@H](Cc1cc(I)c(O)c(I)c1)C(=O)O [PCM-0215163] | -31.9
